Columns and labels:
Type in all cases: cell-based
[1] = test system: COX-2; assay: COX-2 expression induced by LPS in human PBMC (immunoblot); conditions: LPS 10 μg/ml, 19 hours, 0.1-5 mM
Method: Mononuclear cells (PBMC) were obtained from blood of healthy donors from the Hospital de Sant Pau, (Barcelona) who had not taken any antiinflammatory drug during a period of not less than 2 weeks before blood extraction. Starting from a volume of about 80 ml of heparinized human blood (10 U/ml), this was diluted (1:1) with PBS (pH 7.4; Dulbecco) without calcium, magnesium nor sodium bicarbonate. 15 ml of Ficoll solution (d=1.077 at 20° C.; Biochrom KG) were placed in 50-ml Falcon tubes. To this solution a volume of about 25 ml per tube of the blood previously diluted with PBS was carefully added and the tubes were then centrifuged at 1,200 g for 20 minutes. Mononudear cells concentrate on a whitish interphase between the plasma and the Ficoll solution. This interphase was collected with a Pasteur pipette and was diluted 1:1 with PBS. It was then centrifuged at 300 g, 10 min. The resulting pellet was resuspended in 50 ml PBS and was again centrifuged at 200 g for 10 min in order to remove platelet contamination. Finally, the resulting pellet was resuspended in 20 ml RPMI-1640 culture medium (GibcoBRL) supplemented with 10% fetal calf serum.
Cells were diluted at a concentration of 2.5 million/ml with RPMI medium containing 10% fetal calf serum and were incubated (37° C., 5% CO2) 19 hours in 6-well plates (2 ml/well, 5 million PBMC). […]

[2] = Cell viability of Jurkat cells (EZ4U); conditions: human, Jurkat cells (acute T cell leukemia), read-out: Percentage of cell viability
Method: (§1) Several cell lines obtained from the American Type Culture Collection (ATCC) were cultured at 37° C. and under a 5% CO2 atmosphere. Each cell line was grown in an appropriate culture medium and within the exponential phase (Table I).
(§2) For the cell viability studies 24-well plates were used, where 0.5×10^6 cells/ml (for 24-hour studies), 0.25×10^6 cells/ml (for 48-hour studies) or 0.125×10^6 cells/ml (for 72-hour studies) were incubated. Next, different concentrations of HTB (1-3 mM) were added and cells were incubated for different time periods (37° C., 5% CO2). After incubation, the supernatant from each well was extracted, and cells were washed with culture medium without fetal calf serum. Then, the supernatant was extracted and 200 μl culture medium without fetal calf serum were added to each well. In addition, 20 μl substrate were added to determine cell viability. This method is based on the ability of viable cells to transform the colourless substrate into a coloured substance that is excreted to the supernatant (EZ4U, Biomedica Gmbh.). After incubating cells for 1 hour at 37° C. and 5% CO2, 200 μl supernatant were collected and the absorbance was measured at 450 nm.
(§3) The absorbance was also determined at 620 nm as a measure of the existing non-specific value.

[3] = Cell viability of 143.98.2 cells (EZ4U); conditions: human, read-out: Percentage of cell viability
Method: as §1, §2, §3

[4] = Cell viability of U-937 cells (EZ4U); conditions: human, U-937 histiocytic lymphoma cells, read-out: Percentage of cell viability
Method: as §1, §2, §3

[5] = Cell viability of 1321N1 cells (EZ4U); conditions: human, 1321N1 cells (astrocytoma), read-out: Percentage of cell viability
Method: as §1, §2, §3

Question: With `O=C(O)c1ccc(C(F)(F)F)cc1O` [HTB, 2-hydroxy-4-trifluoromethylbenzoic acid] as the compound, how does the “inhibition of COX-2 expression” value [1] read?
Answer: Its value is “concentration-dependently inhibit”.

Question: And the viability at 0 h, 1 mM ([2]; 1 mM HTB, 0 hours)?
Answer: The viability at 0 h, 1 mM was 100%.

Question: What about the viability at 2 h, 1 mM ([2]; 1 mM HTB, 2 hours) of the same compound?
Answer: Its viability at 2 h, 1 mM is 100%.

Question: And the viability at 5 h, 1 mM ([2]; 1 mM HTB, 5 hours)?
Answer: The viability at 5 h, 1 mM was 76.8%.

Question: And the viability at 24 h, 1 mM ([2]; 1 mM HTB, 24 hours)?
Answer: Its viability at 24 h, 1 mM is 11.3%.

Question: And the viability at 48 h, 1 mM ([2]; 1 mM HTB, 48 hours)?
Answer: The viability at 48 h, 1 mM was 3.6%.

Question: What about the viability at 72 h, 1 mM ([2]; 1 mM HTB, 72 hours) of the same compound?
Answer: Its viability at 72 h, 1 mM is 1.6%.

Question: And the viability at 0 h, 3 mM ([2]; 3 mM HTB, 0 hours)?
Answer: Its viability at 0 h, 3 mM is 100%.

Question: And the viability at 2 h, 3 mM ([2]; 3 mM HTB, 2 hours)?
Answer: Its viability at 2 h, 3 mM is 100%.

Question: And the viability at 5 h, 3 mM ([2]; 3 mM HTB, 5 hours)?
Answer: Its viability at 5 h, 3 mM is 62.6%.

Question: And the viability at 24 h, 3 mM ([2]; 3 mM HTB, 24 hours)?
Answer: Its viability at 24 h, 3 mM is 6.2%.

Question: What about the viability at 48 h, 3 mM ([2]; 3 mM HTB, 48 hours) of the same compound?
Answer: Its viability at 48 h, 3 mM is 5.4%.

Question: What about the viability at 0 h, 1 mM ([3]; 143.98.2 cells (osteosarcoma), 1 mM HTB, 0 hours) of the same compound?
Answer: The viability at 0 h, 1 mM was 100%.

Question: What about the viability at 2 h, 1 mM ([3]; 143.98.2 cells (osteosarcoma), 1 mM HTB, 2 hours) of the same compound?
Answer: Its viability at 2 h, 1 mM is 100%.

Question: And the viability at 5 h, 1 mM ([3]; 143.98.2 cells (osteosarcoma), 1 mM HTB, 5 hours)?
Answer: The viability at 5 h, 1 mM was 100%.

Question: And the viability at 24 h, 1 mM ([3]; 143.98.2 cells (osteosarcoma), 1 mM HTB, 24 hours)?
Answer: The viability at 24 h, 1 mM was 93.9%.

Question: And the viability at 48 h, 1 mM ([3]; 143.98.2 cells (osteosarcoma), 1 mM HTB, 48 hours)?
Answer: Its viability at 48 h, 1 mM is 83.2%.

Question: And the viability at 72 h, 1 mM ([3]; 143.98.2 cells (osteosarcoma), 1 mM HTB, 72 hours)?
Answer: Its viability at 72 h, 1 mM is 50.4%.

Question: What about the viability at 0 h, 3 mM ([3]; 143.98.2 cells (osteosarcoma), 3 mM HTB, 0 hours) of the same compound?
Answer: The viability at 0 h, 3 mM was 100%.

Question: And the viability at 2 h, 3 mM ([3]; 143.98.2 osteosarcoma cells, 3 mM HTB, 2 hours)?
Answer: Its viability at 2 h, 3 mM is 98.1%.

Question: What about the viability at 5 h, 3 mM ([3]; 143.98.2 osteosarcoma cells, 3 mM HTB, 5 hours) of the same compound?
Answer: The viability at 5 h, 3 mM was 82.7%.

Question: What about the viability at 24 h, 3 mM ([3]; 143.98.2 osteosarcoma cells, 3 mM HTB, 24 hours) of the same compound?
Answer: The viability at 24 h, 3 mM was 52.2%.

Question: What about the viability at 48 h, 3 mM ([3]; 143.98.2 osteosarcoma cells, 3 mM HTB, 48 hours) of the same compound?
Answer: Its viability at 48 h, 3 mM is 16.1%.

Question: What about the viability at 0 h, 1 mM ([4]; 1 mM HTB, 0 hours) of the same compound?
Answer: Its viability at 0 h, 1 mM is 100%.

Question: What about the viability at 2 h, 1 mM ([4]; 1 mM HTB, 2 hours) of the same compound?
Answer: The viability at 2 h, 1 mM was 100%.

Question: And the viability at 5 h, 1 mM ([4]; 1 mM HTB, 5 hours)?
Answer: Its viability at 5 h, 1 mM is 98.8%.

Question: And the viability at 24 h, 1 mM ([4]; 1 mM HTB, 24 hours)?
Answer: Its viability at 24 h, 1 mM is 74.4%.

Question: And the viability at 48 h, 1 mM ([4]; 1 mM HTB, 48 hours)?
Answer: Its viability at 48 h, 1 mM is 39.6%.

Question: What about the viability at 72 h, 1 mM ([4]; 1 mM HTB, 72 hours) of the same compound?
Answer: Its viability at 72 h, 1 mM is 4.8%.

Question: And the viability at 0 h, 3 mM ([4]; 3 mM HTB, 0 hours)?
Answer: Its viability at 0 h, 3 mM is 100%.

Question: What about the viability at 2 h, 3 mM ([4]; 3 mM HTB, 2 hours) of the same compound?
Answer: Its viability at 2 h, 3 mM is 96.1%.

Question: What about the viability at 5 h, 3 mM ([4]; 3 mM HTB, 5 hours) of the same compound?
Answer: The viability at 5 h, 3 mM was 92.6%.

Question: What about the viability at 24 h, 3 mM ([4]; 3 mM HTB, 24 hours) of the same compound?
Answer: Its viability at 24 h, 3 mM is 13.9%.

Question: What about the viability at 48 h, 3 mM ([4]; 3 mM HTB, 48 hours) of the same compound?
Answer: The viability at 48 h, 3 mM was 7.5%.

Question: What about the viability at 0 h, 1 mM ([5]; 1 mM HTB, 0 hours) of the same compound?
Answer: The viability at 0 h, 1 mM was 100%.

Question: And the viability at 2 h, 1 mM ([5]; 1 mM HTB, 2 hours)?
Answer: The viability at 2 h, 1 mM was 99.7%.

Question: And the viability at 5 h, 1 mM ([5]; 1 mM HTB, 5 hours)?
Answer: Its viability at 5 h, 1 mM is 94.2%.

Question: And the viability at 24 h, 1 mM ([5]; 1 mM HTB, 24 hours)?
Answer: The viability at 24 h, 1 mM was 87.5%.

Question: What about the viability at 0 h, 3 mM ([5]; 3 mM HTB, 0 hours) of the same compound?
Answer: Its viability at 0 h, 3 mM is 100%.

Question: What about the viability at 2 h, 3 mM ([5]; 3 mM HTB, 2 hours) of the same compound?
Answer: The viability at 2 h, 3 mM was 85.3%.

Question: What about the viability at 5 h, 3 mM ([5]; 3 mM HTB, 5 hours) of the same compound?
Answer: Its viability at 5 h, 3 mM is 67.2%.

Question: And the viability at 24 h, 3 mM ([5]; 3 mM HTB, 24 hours)?
Answer: Its viability at 24 h, 3 mM is 62.2%.

Question: And the viability at 48 h, 3 mM ([5]; 3 mM HTB, 48 hours)?
Answer: Its viability at 48 h, 3 mM is 17.8%.

Question: Which “inhibition of COX-2 expression” value [1] does the source give for `CC(=O)Oc1cc(C(F)(F)F)ccc1C(=O)O` [triflusal, 2-Acetyloxy-4-trifluoromethylbenzoic acid, reference compound] here?
Answer: The value was “concentration-dependently inhibit”.
